Measured values published in patent publication US10221139B2, “Inhibitors of histone demethylases” (Gilead Sciences, Inc., priority 2012, dated 2019).
pIC50: −log10 of the molar value.

Tests used:
Assay type in all cases: biochemical
JARID1C (KDM5C) = biological target: T1, JARID1C (KDM5C) (Homo sapiens, UniProt P41229); assay: Histone lysine demethylase AlphaLISA assay, JARID1C; conditions: substrate H3K4M3B
T1 construct: 2-1560; purchased BPS; host or cells: Bac (baculovirus)
Description: (§1) Example 2: Histone Lysine Demethylase AlphaLISA Assays for IC50 Value Determination
(§2) Assays are performed analogously to the protocol described by Perkin Elmer (Roy et al. Perkin Elmer Technical Note: AlphaLISA #12, April 2011).
(§3) Enzymes are dissolved in enzyme buffer and incubated for 10 min before 5 μL is added to 5 μL 3% DMSO solutions of compounds in enzyme buffer. Incubated for another 10 minutes, before 5 μL substrate solution is added and the reaction mixture is incubated at room temperature for the given period. 10 μL acceptor beads, suspended at given dilutions in Epigenetic Buffer (Perkin Elmer AL008) from stock, are added and the suspension is incubated 60 minutes in the dark at room temperature, before 10 μL suspension (at the given dilutions in Epigenetic Buffer) of streptavidin donor beads (Perkin Elmer 6760002) in Epigenetic Buffer is added. After incubation at room temperature in the dark the plates are read. Reaction conditions are seen in Table 2b.

PHF8 (KDM7) = biological target: T2, PHF8 (KDM7) (Homo sapiens, UniProt Q9UPP1); assay: Histone lysine demethylase AlphaLISA assay, PHF8; conditions: substrate BK9M2
T2 construct: KDM7 (PHF8); BRIC; 1-1322; Bac
Description: as §1, §2, §3

GASC1 (KDM4C, JMJD2C) = biological target: T3, GASC1 (KDM4C, JMJD2C) (Homo sapiens, UniProt Q9H3R0); assay: Histone lysine demethylase AlphaLISA assay, GASC1; conditions: substrate BK9M3
T3 construct: 1-349; host or cells: E. coli
T3 sequence (Q9H3R0 1-349): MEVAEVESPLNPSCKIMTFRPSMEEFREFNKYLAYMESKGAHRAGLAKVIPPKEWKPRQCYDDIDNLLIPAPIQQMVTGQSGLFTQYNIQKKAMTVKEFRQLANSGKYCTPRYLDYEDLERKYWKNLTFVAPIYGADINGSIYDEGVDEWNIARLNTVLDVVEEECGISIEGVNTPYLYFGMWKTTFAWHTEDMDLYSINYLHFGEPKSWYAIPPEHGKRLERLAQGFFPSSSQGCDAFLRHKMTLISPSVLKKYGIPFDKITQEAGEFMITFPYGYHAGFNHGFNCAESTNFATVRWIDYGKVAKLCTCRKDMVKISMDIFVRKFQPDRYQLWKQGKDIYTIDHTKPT
How it was run: (§4)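 Enzyme was preincubated 10 min, then 10 min with compounds in 3% DMSO buffer before substrate addition; reaction ran at room temperature. AlphaLISA acceptor beads (60 min, dark) and streptavidin donor beads were added before reading for IC50.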

JMJD2B (KDM4B) = biological target: T4, JMJD2B (KDM4B) (Homo sapiens, UniProt O94953); assay: Histone lysine demethylase AlphaLISA assay, JMJD2B; conditions: substrate BK9M3, read-out: JMUD2B IC50
T4 construct: 2-500; purchased BPS; host or cells: Bac (baculovirus)
T4 sequence (O94953 2-500): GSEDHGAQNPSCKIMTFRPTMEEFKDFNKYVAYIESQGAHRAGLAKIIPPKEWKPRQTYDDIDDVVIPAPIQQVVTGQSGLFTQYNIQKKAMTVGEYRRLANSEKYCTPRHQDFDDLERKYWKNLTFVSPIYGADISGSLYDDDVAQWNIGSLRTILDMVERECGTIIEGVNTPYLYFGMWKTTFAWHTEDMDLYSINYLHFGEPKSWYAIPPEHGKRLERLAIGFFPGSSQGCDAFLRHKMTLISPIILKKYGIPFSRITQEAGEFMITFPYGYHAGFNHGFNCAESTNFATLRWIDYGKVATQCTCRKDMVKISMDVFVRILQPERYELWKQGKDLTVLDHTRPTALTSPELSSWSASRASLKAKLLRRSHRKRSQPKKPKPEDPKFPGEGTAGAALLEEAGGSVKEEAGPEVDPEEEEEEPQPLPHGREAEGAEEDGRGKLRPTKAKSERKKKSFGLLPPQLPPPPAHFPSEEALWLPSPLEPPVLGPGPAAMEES
Description: as §1, §2, §3

FBXL10 (KDM2B) = biological target: T5, FBXL10 (KDM2B) (Homo sapiens, UniProt Q8NHM5); assay: Histone lysine demethylase AlphaLISA assay, FBXL10; conditions: substrate BH3K36M2
T5 construct: 1-650; purchased BPS, Bioscience, US; host or cells: Bac (baculovirus)
T5 sequence (Q8NHM5 1-650): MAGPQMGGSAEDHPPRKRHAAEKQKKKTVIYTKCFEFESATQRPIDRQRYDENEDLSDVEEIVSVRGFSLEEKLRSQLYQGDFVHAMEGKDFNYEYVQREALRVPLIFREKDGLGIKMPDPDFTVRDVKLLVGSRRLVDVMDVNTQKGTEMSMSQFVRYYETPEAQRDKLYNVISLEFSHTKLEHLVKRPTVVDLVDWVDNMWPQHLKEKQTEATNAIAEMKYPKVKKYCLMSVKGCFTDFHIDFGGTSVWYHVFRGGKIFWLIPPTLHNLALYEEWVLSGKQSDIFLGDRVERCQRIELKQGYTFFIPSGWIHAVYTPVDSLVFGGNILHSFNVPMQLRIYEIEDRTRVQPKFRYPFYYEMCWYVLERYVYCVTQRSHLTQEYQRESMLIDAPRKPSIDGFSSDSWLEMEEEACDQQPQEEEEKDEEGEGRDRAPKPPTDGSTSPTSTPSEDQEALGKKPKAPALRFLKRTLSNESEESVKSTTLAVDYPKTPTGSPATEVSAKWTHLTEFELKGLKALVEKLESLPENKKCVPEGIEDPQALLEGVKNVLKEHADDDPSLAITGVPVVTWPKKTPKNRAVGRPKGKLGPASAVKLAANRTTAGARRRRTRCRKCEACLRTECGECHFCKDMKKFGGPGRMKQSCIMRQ
How it was run: as §4

T2 sequence (Q9UPP1 37-477 limits assumed): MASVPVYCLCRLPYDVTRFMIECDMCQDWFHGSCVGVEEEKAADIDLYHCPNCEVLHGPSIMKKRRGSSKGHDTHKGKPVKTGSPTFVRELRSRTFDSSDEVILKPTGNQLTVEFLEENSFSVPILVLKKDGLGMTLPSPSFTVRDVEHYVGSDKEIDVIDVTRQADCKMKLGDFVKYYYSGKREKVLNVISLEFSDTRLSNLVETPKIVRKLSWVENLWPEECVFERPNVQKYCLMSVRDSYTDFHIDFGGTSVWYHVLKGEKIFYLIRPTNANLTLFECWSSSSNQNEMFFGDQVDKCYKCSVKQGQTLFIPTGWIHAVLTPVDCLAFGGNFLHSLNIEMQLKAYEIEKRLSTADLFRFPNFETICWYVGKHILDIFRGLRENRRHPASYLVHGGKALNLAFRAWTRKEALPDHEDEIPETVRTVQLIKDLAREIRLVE
T1 sequence (P41229 2-1560): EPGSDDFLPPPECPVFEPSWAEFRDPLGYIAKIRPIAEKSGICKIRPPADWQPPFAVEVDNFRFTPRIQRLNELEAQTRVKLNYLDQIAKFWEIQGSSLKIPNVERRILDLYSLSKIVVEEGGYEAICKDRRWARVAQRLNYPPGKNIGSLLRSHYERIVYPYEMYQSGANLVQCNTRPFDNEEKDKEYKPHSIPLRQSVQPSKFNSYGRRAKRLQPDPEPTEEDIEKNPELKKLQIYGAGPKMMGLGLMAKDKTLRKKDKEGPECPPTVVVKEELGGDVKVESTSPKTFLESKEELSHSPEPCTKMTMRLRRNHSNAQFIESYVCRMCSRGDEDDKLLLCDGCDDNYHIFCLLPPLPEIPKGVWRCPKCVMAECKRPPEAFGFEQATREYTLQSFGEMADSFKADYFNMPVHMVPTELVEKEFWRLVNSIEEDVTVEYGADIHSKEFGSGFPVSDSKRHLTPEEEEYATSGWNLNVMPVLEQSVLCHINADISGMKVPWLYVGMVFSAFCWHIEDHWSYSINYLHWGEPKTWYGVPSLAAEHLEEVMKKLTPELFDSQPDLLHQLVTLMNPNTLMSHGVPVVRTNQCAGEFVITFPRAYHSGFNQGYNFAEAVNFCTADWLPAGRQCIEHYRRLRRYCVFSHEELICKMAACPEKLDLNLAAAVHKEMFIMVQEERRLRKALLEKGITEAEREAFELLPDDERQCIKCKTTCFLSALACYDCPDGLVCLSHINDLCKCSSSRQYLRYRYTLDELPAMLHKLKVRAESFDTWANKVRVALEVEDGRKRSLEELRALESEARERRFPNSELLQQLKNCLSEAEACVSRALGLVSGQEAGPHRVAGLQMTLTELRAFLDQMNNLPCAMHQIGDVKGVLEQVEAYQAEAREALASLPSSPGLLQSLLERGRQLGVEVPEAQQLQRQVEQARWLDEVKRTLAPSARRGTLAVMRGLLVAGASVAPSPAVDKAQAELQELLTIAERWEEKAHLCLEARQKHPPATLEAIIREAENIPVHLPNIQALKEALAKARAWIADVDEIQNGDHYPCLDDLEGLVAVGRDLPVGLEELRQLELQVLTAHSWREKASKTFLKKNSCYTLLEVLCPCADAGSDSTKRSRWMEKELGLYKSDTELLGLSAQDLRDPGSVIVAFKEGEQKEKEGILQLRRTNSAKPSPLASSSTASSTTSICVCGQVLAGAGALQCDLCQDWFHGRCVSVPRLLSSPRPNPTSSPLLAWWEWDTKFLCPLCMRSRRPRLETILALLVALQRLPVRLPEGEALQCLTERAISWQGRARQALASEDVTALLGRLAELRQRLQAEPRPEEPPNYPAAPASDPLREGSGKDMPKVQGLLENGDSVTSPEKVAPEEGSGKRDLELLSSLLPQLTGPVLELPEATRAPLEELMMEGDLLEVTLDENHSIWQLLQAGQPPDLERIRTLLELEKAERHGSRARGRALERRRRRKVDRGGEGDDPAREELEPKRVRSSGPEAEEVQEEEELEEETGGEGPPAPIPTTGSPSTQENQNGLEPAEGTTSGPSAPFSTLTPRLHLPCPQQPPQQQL

| Molecule | pIC50 (JARID1C (KDM5C)) | pIC50 (PHF8 (KDM7)) | pIC50 (GASC1 (KDM4C, JMJD2C)) | pIC50 (JMJD2B (KDM4B)) | pIC50 (FBXL10 (KDM2B)) |
| --- | --- | --- | --- | --- | --- |
| CCCCN1CCCC1CCNCc1cc(C(=O)O)ccn1 (stereo not shown) [#34, 2-({[2-(1-butylpyrrolidin-2-yl)ethyl]amino}methyl)pyridine-4-carboxylic acid] | > 7.00 | ≤ 6.00 | > 7.00 | > 7.00 |  |
| O=C(O)c1ccnc(CNCC(=O)N2CCCC2)c1 [#13, 2-({[2-oxo-2-(pyrrolidin-1-yl)ethyl]amino}methyl)pyridine-4-carboxylic acid] | > 7.00 | 6.00 to 7.00 | > 7.00 | > 7.00 | > 7.00 |
| COc1ccccc1CN1CCC(NC(=O)CNCc2cc(C(=O)O)ccn2)CC1 [#29, 2-({[({1-[(2-methoxyphenyl)methyl]piperidin-4-yl}carbamoyl)methyl]amino}methyl)pyridine-4-carboxylic acid] | > 7.00 | > 7.00 | > 7.00 | > 7.00 | > 7.00 |
| CC(C)=CCCC(C)CCN1CCC(NC(=O)CNCc2cc(C(=O)O)ccn2)C1 (stereo not shown) [#35, 2-{[({[1-(3,7-dimethyloct-6-en-1-yl)pyrrolidin-3-yl]carbamoyl}methyl)amino]methyl}pyridine-4-carboxylic acid] | > 7.00 | 6.00 to 7.00 | > 7.00 | > 7.00 | 6.00 to 7.00 |
| CCN(CCN(C)C)C(=O)CNCc1cc(C(=O)O)ccn1 [#49, 2-{[({[2-(dimethylamino)ethyl](ethyl)carbamoyl}methyl)amino]methyl}pyridine-4-carboxylic acid] | > 7.00 | 6.00 to 7.00 | > 7.00 | > 7.00 | 6.00 to 7.00 |
| 2-({[(1R)-2-hydroxy-1-{methyl[3-(1-methyl-1H-imidazol-2-yl)propyl]carbamoyl}ethyl]amino}methyl)pyridine-4-carboxylic acid [#37] | 6.00 to 7.00 | ≤ 6.00 | > 7.00 | > 7.00 | ≤ 6.00 |
| CCCCN(C)C(=O)CNCc1cc(C(=O)O)ccn1 [#14, 2-[({[butyl(methyl)carbamoyl]methyl}amino)methyl]pyridine-4-carboxylic acid] | > 7.00 | 6.00 to 7.00 | > 7.00 | > 7.00 | > 7.00 |
